Here are results for eight compounds from patent publication US20230340012A1, “NATURAL AND SYNTHETIC COMPOUNDS FOR TREATING CANCER AND OTHER DISEASES” (PACIFIC ARROW LIMITED, priority 2009, published 2023).

For the series, the system named is cancer cells. Put plainly: MTT cytotoxic assay of esterification products (Cytotoxicity activity). The format is cell-based, human. In a few lines:
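Cytotoxicity was read by MTT (Carmichael method, modified), with cells seeded 24 h ahead of treatment. Sixteen human cancer lines spanning bone, lung, bladder, ovary, colon, pancreas, prostate, skin, mouth, kidney, breast, liver, brain, leukemia and cervix were used. Test samples were acyl chloride esterification products of triterpenes, as mixtures or HPLC-purified compounds.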
Background: Tetrazolium dyes change colour on reduction, which living cells bring about.

The mark [1] stands for this setting: E4A esterified with Cinnamoyl chloride (Cin = Cinnamoyl), compounds isolated with HPLC.
Where [2] appears, read: E4A esterified with 2-propenoyl chloride (Ppe = Propenoyl), compounds isolated with HPLC.
[3] abbreviates: E4A esterified with Propionyl chloride (Ppi = Propionyl), compounds isolated with HPLC.
[4] abbreviates: E4A esterified with benzoyl chloride (Ben = benzoyl), compounds isolated with HPLC.
The mark [5] stands for this setting: esterification products of core compound E4A with (2E)-2-pentenoyl chloride (2pe = 2-pentenoyl).
Where [6] appears, read: esterification products of core compound E4A with Butyryl chloride (But = Butyryl).
[7] abbreviates: esterification products of core compound E4A with Decanoyl chloride (Dec = Decanoyl).
The mark [8] stands for this setting: esterification products of core compound E4A with Isobutyryl chloride (Iso = Isobutyryl).
Where [9] appears, read: esterification products of core compound E4A with Myristoyl chloride (Myr = Myristoyl).
Setting [10] is: esterification products of core compound E4A with Octanoyl chloride (Oct = Octanoyl).

On to `CC1(C)CC2C3=CCC4C5(C)CCC(O)C(C)(COC(=O)C=Cc6ccccc6)C5CCC4(C)C3(C)CC(O)C2(CO)C(OC(=O)C=Cc2ccccc2)C1O` (stereo not drawn) [Compound J30], for which the Cytotoxicity activity entry under setting [1] is on record as “moderate”.

Turning to `CC1(C)CC2C3=CCC4C5(C)CCC(OC(=O)C=Cc6ccccc6)C(C)(COC(=O)C=Cc6ccccc6)C5CCC4(C)C3(C)CC(O)C2(CO)C(O)C1O` (stereo not drawn) [Compound J31], under setting [1], the Cytotoxicity activity result was “moderate”.

As for `CC1(C)CC2C3=CCC4C5(C)CCC(O)C(C)(COC(=O)C=Cc6ccccc6)C5CCC4(C)C3(C)CC(OC(=O)C=Cc3ccccc3)C2(CO)C(O)C1O` (stereo not drawn) [Compound J32], the Cytotoxicity activity entry under setting [1] is on record as “moderate”.

Regarding `CC1(C)CC2C3=CCC4C5(C)CCC(O)C(C)(COC(=O)c6ccccc6)C5CCC4(C)C3(C)CC(OC(=O)c3ccccc3)C2(COC(=O)c2ccccc2)C(OC(=O)c2ccccc2)C1O` (stereo not drawn) [Compound K12], the Cytotoxicity activity result is given as “weak” under setting [2]; “weak” under setting [3]; “weak” under setting [4]; “weak” under setting [5]; “weak” under setting [6]; “weak” under setting [7]. The Cytotoxicity activity entry under setting [8] is “weak”, the Cytotoxicity activity result under setting [9] is on record as “weak” and the Cytotoxicity activity result under setting [10] is on record as “weak”.

Regarding `CC1(C)CC2C3=CCC4C5(C)CCC(O)C(C)(COC(=O)c6ccccc6)C5CCC4(C)C3(C)CC(OC(=O)c3ccccc3)C2(COC(=O)c2ccccc2)C(O)C1OC(=O)c1ccccc1` (stereo not drawn) [Compound K13], the Cytotoxicity activity entry by setting is: under setting [2], “weak”; under setting [3], “weak”; under setting [4], “weak”; under setting [5], “weak”; under setting [6], “weak”; under setting [7], “weak”. For the same compound, the Cytotoxicity activity result reads like this: under setting [8], “weak”; under setting [9], “weak”; under setting [10], “weak”.

With `CC1(C)CC2C3=CCC4C5(C)CCC(OC(=O)c6ccccc6)C(C)(COC(=O)c6ccccc6)C5CCC4(C)C3(C)CC(O)C2(COC(=O)c2ccccc2)C(OC(=O)c2ccccc2)C1O` (stereo not drawn) [Compound K14], the Cytotoxicity activity result was “weak” under setting [2]; “weak” under setting [3]; “weak” under setting [4]; “weak” under setting [5]; “weak” under setting [6]; “weak” under setting [7]. For the same compound, the Cytotoxicity activity result was “weak” under setting [8], “weak” under setting [9] and “weak” under setting [10].

For the compound `CC1(C)CC2C3=CCC4C5(C)CCC(OC(=O)c6ccccc6)C(C)(COC(=O)c6ccccc6)C5CCC4(C)C3(C)CC(O)C2(COC(=O)c2ccccc2)C(OC(=O)c2ccccc2)C1OC(=O)c1ccccc1` (stereo not drawn) [Compound K15], the Cytotoxicity activity result under setting [2] is on record as “weak”; the Cytotoxicity activity result under setting [3] is recorded as “weak”; the Cytotoxicity activity entry under setting [4] is on record as “weak”; the Cytotoxicity activity entry under setting [5] is reported as “weak”; the Cytotoxicity activity entry under setting [6] is reported as “weak”; the Cytotoxicity activity entry under setting [7] is on record as “weak”. Also, the Cytotoxicity activity entry is on record as “weak” under setting [8], “weak” under setting [9] and “weak” under setting [10].

With `CC1(C)CC2C3=CCC4C5(C)CCC(O)C(C)(COC(=O)c6ccccc6)C5CCC4(C)C3(C)CC(OC(=O)c3ccccc3)C2(COC(=O)c2ccccc2)C(OC(=O)c2ccccc2)C1OC(=O)c1ccccc1` (stereo not drawn) [Compound K16], the Cytotoxicity activity result is reported as “weak” under setting [2]; “weak” under setting [3]; “weak” under setting [4]; “weak” under setting [5]; “weak” under setting [6]; “weak” under setting [7]. Further, the Cytotoxicity activity entry reads like this: under setting [8], “weak”; under setting [9], “weak”; under setting [10], “weak”.
